Columns and labels:
[1] = healthy individuals, given intravenously; cited from earlier work
[2] = system: Hela (cervix cancer line); test: Effects of acadesine in cell lines: Hela; assay type: cell-based
Text: (§1) Another important advantage of the invention is the selectivity and the concentration of acadesine necessary to induce apoptosis. […] This means that the possible side effects coming from damaging other cellular types are minor when using acadesine as a therapeutical agent.

B-CLL cells = test: cells; assay type: cell-based, human
Text: Forty-six patients with B-CLL, seven patients with SMZL, two patients with lymphoproliferative disorder without a specific diagnosis, and four healthy donors were studied. All patients were diagnosed according to standard clinical and laboratory criteria. Written informed consent was obtained from all patients. Mononuclear cells from peripheral blood samples were isolated by centrifugation on a Ficoll/Hypaque (Seromed, Berlin, Germany) gradient and cryopreserved in liquid nitrogen in the presence of 10% dimethyl sulfoxide (DMSO).
Lymphocytes were cultured immediately after thawing at a concentration of 2 to 5×10^6 cells/ml in RPMI 1640 culture medium (Biological Industries, Beit Haemek, Israel) supplemented with 10% heat-inactivated fetal calf serum (Gibco-BRL, Paisley, GB), 1% glutamine, and 1% penicillin-streptomycin at 37° C. in a humidified atmosphere containing 5% carbon dioxide.
Apoptosis was measured by annexin V binding. Exposure of phosphatidylserine was quantified by surface annexin V staining as previously described (cf. B. Bellosillo et al., Blood 1998, vol. 92, pp. 1406-1414). To analyze apoptosis in T cells from the samples, 500,000 cells were incubated for 24 h with the indicated factors. Cells were then washed in phosphate-buffered saline (PBS) solution, and incubated in 50 μl of annexin binding buffer with APC-conjugated anti-CD3 and PE-conjugated anti-CD19 for 10 minutes in the dark. Cells were then diluted with annexin binding buffer to a volume of 250 μl and incubated with 0.5 μl of annexin V-FITC for 15 minutes in the dark. 250 μl of annexin binding buffer and 5 μl of PI were added just before flow cytometric analysis. Data were analyzed using Cell Quest software.
The effect of several doses of acadesine, ranging from 50 μM to 1 mM, on the viability of B-CLL cells, was studied. […] Cells from 5 patients were incubated for 24 h with various doses of acadesine as indicated.
Cells from 46 patients were incubated for 24 h with (+) or without (−) 0.5 mM acadesine. Viability (V) was measured by analysis of phosphatidylserine exposure and PI uptake, and it is expressed as the percentage of non apoptotic cells. All the patients were sensitive to acadesine and the viability decreased from 67±11% to 26±14% (n=46).

[3] = system: B cells from patients with lymphoproliferative disorder without a specific diagnosis; test: Apoptosis/viability by flow cytometry, B cells, lymphoproliferative disorder without a specific diagnosis; assay type: cell-based, human; settings: 0.5 mM and 1.0 mM, 24 h, two patients
Text: (§2) Forty-six patients with B-CLL, seven patients with SMZL, two patients with lymphoproliferative disorder without a specific diagnosis, and four healthy donors were studied. All patients were diagnosed according to standard clinical and laboratory criteria. Written informed consent was obtained from all patients. Mononuclear cells from peripheral blood samples were isolated by centrifugation on a Ficoll/Hypaque (Seromed, Berlin, Germany) gradient and cryopreserved in liquid nitrogen in the presence of 10% dimethyl sulfoxide (DMSO). Lymphocytes were cultured immediately after thawing at a concentration of 2 to 5×10^6 cells/ml in RPMI 1640 culture medium (Biological Industries, Beit Haemek, Israel) supplemented with 10% heat-inactivated fetal calf serum (Gibco-BRL, Paisley, GB), 1% glutamine, and 1% penicillin-streptomycin at 37° C. in a humidified atmosphere containing 5% carbon dioxide. Apoptosis was measured by annexin V binding. Exposure of phosphatidylserine was quantified by surface annexin V staining as previously described (cf. B. Bellosillo et al., Blood 1998, vol. 92, pp. 1406-1414). […] Data were analyzed using Cell Quest software. […] Viability (V) was measured by analysis of phosphatidylserine exposure and PI uptake, and it is expressed as the percentage of non apoptotic cells. […]

[4] = system: B cells from healthy donors; test: Apoptosis/viability by flow cytometry, B cells from healthy donors; assay type: cell-based, human; settings: 0.5 mM, 24 h, 4 healthy donors
Text: Forty-six patients with B-CLL, seven patients with SMZL, two patients with lymphoproliferative disorder without a specific diagnosis, and four healthy donors were studied. All patients were diagnosed according to standard clinical and laboratory criteria. Written informed consent was obtained from all patients. Mononuclear cells from peripheral blood samples were isolated by centrifugation on a Ficoll/Hypaque (Seromed, Berlin, Germany) gradient and cryopreserved in liquid nitrogen in the presence of 10% dimethyl sulfoxide (DMSO). Lymphocytes were cultured immediately after thawing at a concentration of 2 to 5×10^6 cells/ml in RPMI 1640 culture medium (Biological Industries, Beit Haemek, Israel) supplemented with 10% heat-inactivated fetal calf serum (Gibco-BRL, Paisley, GB), 1% glutamine, and 1% penicillin-streptomycin at 37° C. in a humidified atmosphere containing 5% carbon dioxide. Apoptosis was measured by annexin V binding. Exposure of phosphatidylserine was quantified by surface annexin V staining as previously described (cf. B. Bellosillo et al., Blood 1998, vol. 92, pp. 1406-1414). To analyze apoptosis in T cells from the samples, 500,000 cells were incubated for 24 h with the indicated factors. […] Data were analyzed using Cell Quest software. […] Viability is expressed as the mean value ± standard deviation.

[5] = system: MCF-7 (breast cancer line); test: Effects of acadesine in cell lines: MCF-7; assay type: cell-based
Text: as §1

[6] = system: CD3+/CD19- T cells from B-CLL patients; test: Apoptosis/viability by flow cytometry, T cells from B-CLL samples; assay type: cell-based, human; settings: 24 h
Text: Forty-six patients with B-CLL, seven patients with SMZL, two patients with lymphoproliferative disorder without a specific diagnosis, and four healthy donors were studied. All patients were diagnosed according to standard clinical and laboratory criteria. Written informed consent was obtained from all patients. Mononuclear cells from peripheral blood samples were isolated by centrifugation on a Ficoll/Hypaque (Seromed, Berlin, Germany) gradient and cryopreserved in liquid nitrogen in the presence of 10% dimethyl sulfoxide (DMSO). […] Apoptosis was measured by annexin V binding. Exposure of phosphatidylserine was quantified by surface annexin V staining as previously described (cf. B. Bellosillo et al., Blood 1998, vol. 92, pp. 1406-1414). […] Data were analyzed using Cell Quest software. To analyze whether the induction of apoptosis in B-CLL patients was selective to B cells, we counted the apoptotic T cells (CD3 positive cells) in four B-CLL blood samples treated for 24 h with several doses of acadesine. […] Viability (V) was measured as non apoptotic CD3+/CD19− T cells (empty symbols) or CD3−/CD19+B cells (full symbols), and it is expressed as the percentage of the viability of non treated cells. […] Viability is expressed as the mean value ± standard deviation.

Jurkat (T cell line) = test: Effects of acadesine in cell lines: Jurkat; assay type: cell-based
Text: as §1

JVM-2 = test: Effects of acadesine in cell lines: JVM-2; assay type: cell-based
Text: as §1

HUH7 (liver cancer line) = test: Effects of acadesine in cell lines: HUH7; assay type: cell-based
Text: as §1

293 = test: Effects of acadesine in cell lines: 293; assay type: cell-based
Text: as §1

[7] = system: B cells from patients with SMZL; test: Apoptosis/viability by flow cytometry, B cells from SMZL patients; assay type: cell-based, human; settings: 0.5 mM and 1.0 mM, 24 h, seven SMZL patients
Text: as §2

Q: What does the source list for NC(=O)c1ncn([C@@H]2O[C@H](CO)[C@@H](O)[C@H]2O)c1N [acadesine, 5-amino-1-β-D-ribofuranosyl-1H-imidazole-4-carboxamide]?
A: Concentrations in plasma [1]: 200 µM; Tolerability [1]: well tolerated; Sensitivity to acadesine relative to B-CLL cells [2]: less sensitive to acadesine than B-CLL cells; Viability of B cells (B-CLL cells; 0.5 mM, 24 h, 18 B-CLL patients): markedly reduced; Induction of apoptosis (B-CLL cells; 24 h incubation, doses 50 μM to 1 mM, cells from 5 patients): induced apoptosis in a dose-dependent manner; viability at 500 µM (B-CLL cells; Homo sapiens, B-CLL, 24 h, read-out: Viability (percentage of non apoptotic cells)): 26 ± 14%; EC50 (B-CLL cells; Homo sapiens, B-CLL, 24 h incubation, 50 μM to 1 mM, cells from 5 patients (n=5), read-out: EC50 (viability of B-CLL cells)): 380 ± 60 µM; Viability of B cells [3]: markedly reduced; Viability of B cells [4]: markedly reduced; Sensitivity to acadesine relative to B-CLL cells [5]: less sensitive to acadesine than B-CLL cells; Acadesine-induced apoptosis in T cells ([6]; doses up to 1 mM, four B-CLL blood samples): resistant to acadesine-induced apoptosis; Viability of T cells ([6]; higher concentrations 2-4 mM): only slightly affected the viability; Sensitivity to acadesine relative to B-CLL cells (Jurkat (T cell line)): less sensitive to acadesine than B-CLL cells; Sensitivity to acadesine relative to B-CLL cells (JVM-2): less sensitive to acadesine than B-CLL cells; Sensitivity to acadesine relative to B-CLL cells (HUH7 (liver cancer line)): less sensitive to acadesine than B-CLL cells; Sensitivity to acadesine relative to B-CLL cells 293: less sensitive to acadesine than B-CLL cells; Viability of B cells [7]: markedly reduced
